Measured values: PubChem BioAssay AID1963445 (Molecular Pharmacology Branch, DTP, NCI, 2024)

Tested on: MCF7 complex spheroid growth, % test/control
Test: Anticancer human tumor MCF7 cell line growth inhibition [Asc];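 further: spheroids exposed to compounds for 7 days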;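 on viability, T/C: 100% = DMSO vehicle control wells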
Conditions: for IC50: curve of first compound; for viability, T/C: stronger effect = lower value
Summary of the method: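 Tumor cells were grown as complex spheroids with human endothelial cells (HUVEC) and human mesenchymal stem cells as stroma. Agents were tested alone and in combination, in half-log steps down from the clinical Cmax, or from 10 microM where Cmax was unknown.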

[1] = second compound 0.0316 µM, first compound 0.0316 µM
[2] = second compound 0.0316 µM, first compound 0.1 µM
[3] = second compound 0.0316 µM, first compound 0.316 µM
[4] = second compound 0.0316 µM, first compound 1 µM
[5] = second compound 0.1 µM, first compound 0.0316 µM
[6] = second compound 0.1 µM, first compound 0.1 µM
[7] = second compound 0.1 µM, first compound 0.316 µM
[8] = second compound 0.1 µM, first compound 1 µM
[9] = second compound 0.316 µM, first compound 0.0316 µM
[10] = second compound 0.316 µM, first compound 0.1 µM
[11] = second compound 0.316 µM, first compound 0.316 µM
[12] = second compound 0.316 µM, first compound 1 µM
[13] = second compound 1 µM, first compound 0.0316 µM
[14] = second compound 1 µM, first compound 0.1 µM
[15] = second compound 1 µM, first compound 0.316 µM
[16] = second compound 1 µM, first compound 1 µM

Work on `NC(=O)C(=Cn1cnc(-c2cc(C(F)(F)F)cc(C(F)(F)F)c2)n1)c1cncnc1` + CNC(C)C(=O)NC1CN(S(=O)(=O)c2cccc(S(=O)(=O)N3CCC4CCC(C(=O)NC(c5ccccc5)c5ccccc5)N4C(=O)C(NC(=O)C(C)NC)C3)c2)CCC2CCC(C(=O)NC(c3ccccc3)c3ccccc3)N2C1=O yielded an IC50 (second compound 0.00316 µM) of under 0.949 nM, an IC50 (second compound 0.01 µM) of under 0.949 nM and an IC50 (second compound 0.0316 µM) of under 0.949 nM. The IC50 (second compound 0.1 µM) was under 0.949 nM, the IC50 (second compound 0.316 µM) was under 0.949 nM and the IC50 (second compound 1 µM) was under 0.949 nM. It also gave a viability, T/C (second compound 0.00316 µM, first compound 0.000949 µM) of 38.3%, a viability, T/C (second compound 0.00316 µM, first compound 0.003 µM) of 35.7% and a viability, T/C (second compound 0.00316 µM, first compound 0.00949 µM) of 23.6%. For the same compound, the viability, T/C (second compound 0.00316 µM, first compound 0.03 µM) was 16.3%, the viability, T/C (second compound 0.00316 µM, first compound 0.0949 µM) was 15.7% and the viability, T/C (second compound 0.00316 µM, first compound 0.3 µM) was 19.8%. For the same compound, the viability, T/C (second compound 0.01 µM, first compound 0.000949 µM) was 17.5%, the viability, T/C (second compound 0.01 µM, first compound 0.003 µM) was 12.1% and the viability, T/C (second compound 0.01 µM, first compound 0.00949 µM) was 11.6%. The viability, T/C (second compound 0.01 µM, first compound 0.03 µM) was 14.1%, the viability, T/C (second compound 0.01 µM, first compound 0.0949 µM) was 17.8% and the viability, T/C (second compound 0.01 µM, first compound 0.3 µM) was 16.7%. It also gave a viability, T/C (second compound 0.0316 µM, first compound 0.000949 µM) of 17.1%, a viability, T/C (second compound 0.0316 µM, first compound 0.003 µM) of 12.9% and a viability, T/C (second compound 0.0316 µM, first compound 0.00949 µM) of 13.1%. The viability, T/C (second compound 0.0316 µM, first compound 0.03 µM) was 17%, the viability, T/C (second compound 0.0316 µM, first compound 0.0949 µM) was 19% and the viability, T/C (second compound 0.0316 µM, first compound 0.3 µM) was 20.2%. The viability, T/C (second compound 0.1 µM, first compound 0.000949 µM) was 14.6%, the viability, T/C (second compound 0.1 µM, first compound 0.003 µM) was 14.6% and the viability, T/C (second compound 0.1 µM, first compound 0.00949 µM) was 13.7%. For the same compound, the viability, T/C (second compound 0.1 µM, first compound 0.03 µM) was 14.3%, the viability, T/C (second compound 0.1 µM, first compound 0.0949 µM) was 22.9% and the viability, T/C (second compound 0.1 µM, first compound 0.3 µM) was 22.2%. The viability, T/C (second compound 0.316 µM, first compound 0.000949 µM) was 12.9%, the viability, T/C (second compound 0.316 µM, first compound 0.003 µM) was 16% and the viability, T/C (second compound 0.316 µM, first compound 0.00949 µM) was 14.4%. It also gave a viability, T/C (second compound 0.316 µM, first compound 0.03 µM) of 14.5%, a viability, T/C (second compound 0.316 µM, first compound 0.0949 µM) of 22.4% and a viability, T/C (second compound 0.316 µM, first compound 0.3 µM) of 23.7%. The viability, T/C (second compound 1 µM, first compound 0.000949 µM) was 13.9%, the viability, T/C (second compound 1 µM, first compound 0.003 µM) was 16% and the viability, T/C (second compound 1 µM, first compound 0.00949 µM) was 13.9%. For the same compound, the viability, T/C (second compound 1 µM, first compound 0.03 µM) was 16.6%, the viability, T/C (second compound 1 µM, first compound 0.0949 µM) was 18.5% and the viability, T/C (second compound 1 µM, first compound 0.3 µM) was 22.3%.
For `COc1c(OCCCN2CCOCC2)ccc2c3n(c(=NC(=O)c4cnc(N)nc4)nc12)CCN3` + Cc1c(S(C)(=O)=O)c(-c2cc(F)cc(N3CCN(c4ccc(NS(=O)(=O)c5ccc(NC(CCN6CCC(C(=O)OCCCP(=O)(O)O)CC6)CSc6ccccc6)c(S(=O)(=O)C(F)(F)F)c5)cc4)CC3)c2)c(-c2ccc(Cl)cc2)n1C(C)C, the IC50 (second compound 0.0316 µM) was 31.9 nM, the IC50 (second compound 0.1 µM) was 38 nM and the IC50 (second compound 0.316 µM) was 40 nM. The IC50 (second compound 1 µM) was 32.8 nM, the IC50 (second compound 3.16 µM) was 33 nM and the IC50 (second compound 10 µM) was 76.3 nM. It also gave a viability, T/C (second compound 0.0316 µM, first compound 0.00316 µM) of 89.8%, a viability, T/C (second compound 0.0316 µM, first compound 0.01 µM) of 73% and a viability, T/C [1] of 48.7%. For the same compound, the viability, T/C [2] was 33%, the viability, T/C [3] was 12% and the viability, T/C [4] was 11.4%. For the same compound, the viability, T/C (second compound 0.1 µM, first compound 0.00316 µM) was 77.6%, the viability, T/C (second compound 0.1 µM, first compound 0.01 µM) was 69% and the viability, T/C [5] was 53.1%. The viability, T/C [6] was 33.2%, the viability, T/C [7] was 11.2% and the viability, T/C [8] was 9.98%. For the same compound, the viability, T/C (second compound 0.316 µM, first compound 0.00316 µM) was 72.9%, the viability, T/C (second compound 0.316 µM, first compound 0.01 µM) was 72.2% and the viability, T/C [9] was 53.9%. For the same compound, the viability, T/C [10] was 30.3%, the viability, T/C [11] was 10.3% and the viability, T/C [12] was 11.9%. It also gave a viability, T/C (second compound 1 µM, first compound 0.00316 µM) of 73.6%, a viability, T/C (second compound 1 µM, first compound 0.01 µM) of 68% and a viability, T/C [13] of 50.5%. For the same compound, the viability, T/C [14] was 27.4%, the viability, T/C [15] was 12.9% and the viability, T/C [16] was 13.1%. The viability, T/C (second compound 3.16 µM, first compound 0.00316 µM) was 76.5%, the viability, T/C (second compound 3.16 µM, first compound 0.01 µM) was 64.6% and the viability, T/C (second compound 3.16 µM, first compound 0.0316 µM) was 52.2%. For the same compound, the viability, T/C (second compound 3.16 µM, first compound 0.1 µM) was 30.4%, the viability, T/C (second compound 3.16 µM, first compound 0.316 µM) was 11.8% and the viability, T/C (second compound 3.16 µM, first compound 1 µM) was 13.4%. The viability, T/C (second compound 10 µM, first compound 0.00316 µM) was 171%, the viability, T/C (second compound 10 µM, first compound 0.01 µM) was 164% and the viability, T/C (second compound 10 µM, first compound 0.0316 µM) was 103%. It also gave a viability, T/C (second compound 10 µM, first compound 0.1 µM) of 34.7%, a viability, T/C (second compound 10 µM, first compound 0.316 µM) of 14.6% and a viability, T/C (second compound 10 µM, first compound 1 µM) of 11.9%.
With `O=C(c1cc(Cc2n[nH]c(=O)c3ccccc23)ccc1F)N1CCN(C(=O)C2CC2)CC1` + CNC(C)C(=O)NC1CN(S(=O)(=O)c2cccc(S(=O)(=O)N3CCC4CCC(C(=O)NC(c5ccccc5)c5ccccc5)N4C(=O)C(NC(=O)C(C)NC)C3)c2)CCC2CCC(C(=O)NC(c3ccccc3)c3ccccc3)N2C1=O the IC50 (second compound 0.00316 µM) was under 31.6 nM, the IC50 (second compound 0.01 µM) was under 31.6 nM and the IC50 (second compound 0.0316 µM) was under 31.6 nM. It also gave an IC50 (second compound 0.1 µM) of under 31.6 nM, an IC50 (second compound 0.316 µM) of under 31.6 nM and an IC50 (second compound 1 µM) of under 31.6 nM. It also gave a viability, T/C (second compound 0.00316 µM, first compound 0.0316 µM) of 10.6%, a viability, T/C (second compound 0.00316 µM, first compound 0.1 µM) of 15.2% and a viability, T/C (second compound 0.00316 µM, first compound 0.316 µM) of 8.86%. The viability, T/C (second compound 0.00316 µM, first compound 1 µM) was 10.7%, the viability, T/C (second compound 0.00316 µM, first compound 3.16 µM) was 10.2% and the viability, T/C (second compound 0.00316 µM, first compound 10 µM) was 11.4%. The viability, T/C (second compound 0.01 µM, first compound 0.0316 µM) was 16.2%, the viability, T/C (second compound 0.01 µM, first compound 0.1 µM) was 14.4% and the viability, T/C (second compound 0.01 µM, first compound 0.316 µM) was 14.5%. The viability, T/C (second compound 0.01 µM, first compound 1 µM) was 15.3%, the viability, T/C (second compound 0.01 µM, first compound 3.16 µM) was 16.9% and the viability, T/C (second compound 0.01 µM, first compound 10 µM) was 14%. It also gave a viability, T/C [1] of 13.8%, a viability, T/C [2] of 12% and a viability, T/C [3] of 11.5%. The viability, T/C [4] was 13.1%, the viability, T/C (second compound 0.0316 µM, first compound 3.16 µM) was 11.4% and the viability, T/C (second compound 0.0316 µM, first compound 10 µM) was 12.3%. For the same compound, the viability, T/C [5] was 13%, the viability, T/C [6] was 13.8% and the viability, T/C [7] was 11.8%. The viability, T/C [8] was 13.8%, the viability, T/C (second compound 0.1 µM, first compound 3.16 µM) was 12.1% and the viability, T/C (second compound 0.1 µM, first compound 10 µM) was 11.4%. The viability, T/C [9] was 14.7%, the viability, T/C [10] was 12.3% and the viability, T/C [11] was 11.8%. The viability, T/C [12] was 12.3%, the viability, T/C (second compound 0.316 µM, first compound 3.16 µM) was 11.3% and the viability, T/C (second compound 0.316 µM, first compound 10 µM) was 13.5%. It also gave a viability, T/C [13] of 11.1%, a viability, T/C [14] of 10.9% and a viability, T/C [15] of 13.7%. The viability, T/C [16] was 10.9%, the viability, T/C (second compound 1 µM, first compound 3.16 µM) was 11.9% and the viability, T/C (second compound 1 µM, first compound 10 µM) was 14.3%.
